# PubChem BioAssay (NCI)
#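 A five-concentration, 48-hour dose response in 96-well plates underlies each endpoint, interpolated linearly between surrounding concentrations. Definition used: TGI = concentration required for complete inhibition of growth.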
# Assays:
# Assay in all cases: NCI anticancer screen, dose series, 48 h
# 786-0 renal = tested on: 786-0 renal
# A549 NSCLC = tested on: A549 NSCLC
# CAKI-1 renal = tested on: CAKI-1 renal
# COLO 205 colon = tested on: COLO 205 colon
# DMS 114 small cell lung = tested on: DMS 114 small cell lung
# DMS 273 small cell lung = tested on: DMS 273 small cell lung
# EKVX NSCLC = tested on: EKVX NSCLC
# HCC-2998 colon = tested on: HCC-2998 colon
# HCT-116 colon = tested on: HCT-116 colon
# HCT-15 colon = tested on: HCT-15 colon
# HOP-92 NSCLC = tested on: HOP-92 NSCLC
# HT29 colon = tested on: HT29 colon
# IGROV1 ovarian = tested on: IGROV1 ovarian
# K-562 leukemia = tested on: K-562 leukemia
# KM12 colon = tested on: KM12 colon
# KM20L2 colon = tested on: KM20L2 colon
# LXFL 529 NSCLC = tested on: LXFL 529 NSCLC
# M19-MEL melanoma = tested on: M19-MEL melanoma
# MALME-3M melanoma = tested on: MALME-3M melanoma
# MOLT-4 leukemia = tested on: MOLT-4 leukemia
# NCI-H226 lung = tested on: NCI-H226 lung
# NCI-H23 lung = tested on: NCI-H23 lung
# NCI-H522 lung = tested on: NCI-H522 lung
# OVCAR-3 ovarian = tested on: OVCAR-3 ovarian
# OVCAR-4 ovarian = tested on: OVCAR-4 ovarian
# OVCAR-5 ovarian = tested on: OVCAR-5 ovarian
# OVCAR-8 ovarian = tested on: OVCAR-8 ovarian
# RPMI-8226 leukemia = tested on: RPMI-8226 leukemia
# RXF 393 renal = tested on: RXF 393 renal
# SF-268 CNS = tested on: SF-268 CNS
# SF-295 CNS = tested on: SF-295 CNS
# SK-MEL-2 melanoma = tested on: SK-MEL-2 melanoma
# SK-MEL-28 melanoma = tested on: SK-MEL-28 melanoma
# SK-MEL-5 melanoma = tested on: SK-MEL-5 melanoma
# SK-OV-3 ovarian = tested on: SK-OV-3 ovarian
# SN12C renal = tested on: SN12C renal
# SNB-19 CNS = tested on: SNB-19 CNS
# SNB-75 CNS = tested on: SNB-75 CNS
# SNB-78 CNS = tested on: SNB-78 CNS
# SR leukemia = tested on: SR leukemia
# SW-620 colon = tested on: SW-620 colon
# TK-10 renal = tested on: TK-10 renal
# U251 CNS = tested on: U251 CNS
# UACC-257 melanoma = tested on: UACC-257 melanoma
# UACC-62 melanoma = tested on: UACC-62 melanoma
# UO-31 renal = tested on: UO-31 renal
# ACHN renal = tested on: ACHN renal
# CCRF-CEM leukemia = tested on: CCRF-CEM leukemia
# HL-60(TB) leukemia = tested on: HL-60(TB) leukemia
# HOP-18 NSCLC = tested on: HOP-18 NSCLC
# HOP-62 NSCLC = tested on: HOP-62 NSCLC
# LOX IMVI melanoma = tested on: LOX IMVI melanoma
# M14 melanoma = tested on: M14 melanoma
# NCI-H460 lung = tested on: NCI-H460 lung
# SF-539 CNS = tested on: SF-539 CNS
smiles,measurement,setting,value
O=C(CCC(=O)N/N=C/c1ccccc1O)N/N=C/c1ccccc1O,TGI,786-0 renal,> 100 µM
same,TGI,A549 NSCLC,> 100 µM
same,TGI,CAKI-1 renal,> 100 µM
same,TGI,COLO 205 colon,> 100 µM
same,TGI,DMS 114 small cell lung,> 100 µM
same,TGI,DMS 273 small cell lung,> 100 µM
same,TGI,EKVX NSCLC,56.4 µM
same,TGI,HCC-2998 colon,> 100 µM
same,TGI,HCT-116 colon,> 100 µM
same,TGI,HCT-15 colon,> 100 µM
same,TGI,HOP-92 NSCLC,56.7 µM
same,TGI,HT29 colon,> 100 µM
same,TGI,IGROV1 ovarian,> 100 µM
same,TGI,K-562 leukemia,> 100 µM
same,TGI,KM12 colon,> 100 µM
same,TGI,KM20L2 colon,> 100 µM
same,TGI,LXFL 529 NSCLC,> 100 µM
same,TGI,M19-MEL melanoma,> 100 µM
same,TGI,MALME-3M melanoma,> 100 µM
same,TGI,MOLT-4 leukemia,> 100 µM
same,TGI,NCI-H226 lung,> 100 µM
same,TGI,NCI-H23 lung,> 100 µM
same,TGI,NCI-H522 lung,> 100 µM
same,TGI,OVCAR-3 ovarian,> 100 µM
same,TGI,OVCAR-4 ovarian,> 100 µM
same,TGI,OVCAR-5 ovarian,> 100 µM
same,TGI,OVCAR-8 ovarian,> 100 µM
same,TGI,RPMI-8226 leukemia,> 100 µM
same,TGI,RXF 393 renal,44.4 µM
same,TGI,SF-268 CNS,52.4 µM
same,TGI,SF-295 CNS,> 100 µM
same,TGI,SK-MEL-2 melanoma,81.3 µM
same,TGI,SK-MEL-28 melanoma,> 100 µM
same,TGI,SK-MEL-5 melanoma,> 100 µM
same,TGI,SK-OV-3 ovarian,37.2 µM
same,TGI,SN12C renal,> 100 µM
same,TGI,SNB-19 CNS,> 100 µM
same,TGI,SNB-75 CNS,31.7 µM
same,TGI,SNB-78 CNS,> 100 µM
same,TGI,SR leukemia,> 100 µM
same,TGI,SW-620 colon,> 100 µM
same,TGI,TK-10 renal,> 100 µM
same,TGI,U251 CNS,> 100 µM
same,TGI,UACC-257 melanoma,> 100 µM
same,TGI,UACC-62 melanoma,> 100 µM
same,TGI,UO-31 renal,> 100 µM
Cc1cc(=O)[nH]c(NN2C(Cl)C(=O)C2c2cccc([N+](=O)[O-])c2)n1 (centres undefined),TGI,A549 NSCLC,> 100 µM
same,TGI,ACHN renal,> 100 µM
same,TGI,CCRF-CEM leukemia,10.3 µM
same,TGI,COLO 205 colon,51.6 µM
same,TGI,DMS 114 small cell lung,55.4 µM
same,TGI,DMS 273 small cell lung,31.2 µM
same,TGI,EKVX NSCLC,> 100 µM
same,TGI,HCC-2998 colon,36.8 µM
same,TGI,HCT-116 colon,49.9 µM
same,TGI,HCT-15 colon,31.5 µM
same,TGI,HL-60(TB) leukemia,36.8 µM
same,TGI,HOP-18 NSCLC,78 µM
same,TGI,HOP-62 NSCLC,> 100 µM
same,TGI,HOP-92 NSCLC,34.1 µM
same,TGI,HT29 colon,49.9 µM
same,TGI,K-562 leukemia,55.3 µM
same,TGI,KM12 colon,80.9 µM
same,TGI,KM20L2 colon,> 100 µM
same,TGI,LOX IMVI melanoma,26.9 µM
same,TGI,LXFL 529 NSCLC,29.9 µM
same,TGI,M14 melanoma,32.2 µM
same,TGI,M19-MEL melanoma,49.1 µM
same,TGI,MOLT-4 leukemia,44.9 µM
same,TGI,NCI-H226 lung,46.9 µM
same,TGI,NCI-H23 lung,52.4 µM
same,TGI,NCI-H460 lung,> 100 µM
same,TGI,OVCAR-3 ovarian,32.3 µM
same,TGI,OVCAR-4 ovarian,57 µM
same,TGI,OVCAR-5 ovarian,> 100 µM
same,TGI,OVCAR-8 ovarian,> 100 µM
same,TGI,RPMI-8226 leukemia,40.3 µM
same,TGI,RXF 393 renal,22.5 µM
same,TGI,SF-268 CNS,> 100 µM
same,TGI,SK-MEL-2 melanoma,36.2 µM
same,TGI,SK-MEL-28 melanoma,47.2 µM
same,TGI,SK-MEL-5 melanoma,33.5 µM
same,TGI,SN12C renal,37.6 µM
same,TGI,SNB-19 CNS,> 100 µM
same,TGI,SNB-75 CNS,> 100 µM
same,TGI,SNB-78 CNS,> 100 µM
same,TGI,SR leukemia,57.8 µM
same,TGI,SW-620 colon,> 100 µM
same,TGI,TK-10 renal,> 100 µM
same,TGI,U251 CNS,47.4 µM
same,TGI,UACC-257 melanoma,> 100 µM
same,TGI,UACC-62 melanoma,42.5 µM
same,TGI,UO-31 renal,> 100 µM
CCN(CC)CCN=Cc1c(O)c(O)c(C(C)C)c2cc(C)c(-c3c(C)cc4c(C(C)C)c(O)c(O)c(C=NCCN(CC)CC)c4c3O)c(O)c12,TGI,ACHN renal,8.37 µM
same,TGI,CCRF-CEM leukemia,1.45 µM
same,TGI,COLO 205 colon,14.5 µM
same,TGI,DMS 114 small cell lung,3.76 µM
same,TGI,HCC-2998 colon,9.62 µM
same,TGI,HCT-116 colon,6.02 µM
same,TGI,HOP-62 NSCLC,8.13 µM
same,TGI,HOP-92 NSCLC,7.96 µM
same,TGI,HT29 colon,3.83 µM
same,TGI,IGROV1 ovarian,12.5 µM
same,TGI,K-562 leukemia,3 µM
same,TGI,KM12 colon,3.92 µM
same,TGI,LXFL 529 NSCLC,3.11 µM
same,TGI,M14 melanoma,4.06 µM
same,TGI,M19-MEL melanoma,14.1 µM
same,TGI,MALME-3M melanoma,17 µM
same,TGI,MOLT-4 leukemia,4.36 µM
same,TGI,NCI-H23 lung,8.04 µM
same,TGI,NCI-H460 lung,13.7 µM
same,TGI,NCI-H522 lung,3.4 µM
same,TGI,OVCAR-3 ovarian,4.61 µM
same,TGI,OVCAR-4 ovarian,10.1 µM
same,TGI,RPMI-8226 leukemia,6.16 µM
same,TGI,RXF 393 renal,5.31 µM
same,TGI,SF-268 CNS,34.6 µM
same,TGI,SF-295 CNS,4.45 µM
same,TGI,SF-539 CNS,5.65 µM
same,TGI,SK-MEL-2 melanoma,5.17 µM
same,TGI,SK-MEL-28 melanoma,12.5 µM
same,TGI,SK-OV-3 ovarian,12.4 µM
same,TGI,SNB-19 CNS,8.86 µM
same,TGI,SNB-75 CNS,22.6 µM
same,TGI,SNB-78 CNS,5.6 µM
same,TGI,UACC-257 melanoma,18.8 µM
same,TGI,UACC-62 melanoma,6.03 µM
same,TGI,UO-31 renal,8.8 µM
